# Test results from patent US11905249B2, “Covalent inhibitors of equine encephalitis virus” (priority 2021, dated 2024).
# Read-outs that look alike come from different tables or passages of the source.
# Assays:
# [1] = test system: VEEV (IC-SH3); assay: microbe, parasite or virus in culture; type: cell-based; details: Venezuelan equine encephalitis virus, Vero, read-out: EC50 (Vero)
# [2] = test system: VEEV (IC-SH3); assay: microbe, parasite or virus in culture; type: cell-based; details: Venezuelan equine encephalitis virus, HeLa, read-out: EC50 (HeLa)
# [3] = biological target: VEEV nsP2 protease (Venezuelan equine encephalitis virus, UniProt P27282); assay: biochemical; details: read-out: estimated percentage inhibition of VEEV nsP2
# Sequence of VEEV nsP2 protease (P27282 1003-1322 limits assumed): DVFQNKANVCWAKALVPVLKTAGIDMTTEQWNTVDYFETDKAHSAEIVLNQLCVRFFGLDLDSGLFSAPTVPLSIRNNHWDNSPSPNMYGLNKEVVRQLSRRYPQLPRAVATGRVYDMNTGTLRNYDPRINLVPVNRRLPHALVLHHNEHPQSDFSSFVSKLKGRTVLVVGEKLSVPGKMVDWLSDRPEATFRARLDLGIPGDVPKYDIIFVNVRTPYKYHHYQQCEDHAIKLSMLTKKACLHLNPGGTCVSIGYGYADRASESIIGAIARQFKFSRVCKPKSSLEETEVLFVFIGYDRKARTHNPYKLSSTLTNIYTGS
# [4] = test system: VEEV TC83; assay: microbe, parasite or virus in culture; type: cell-based, Venezuelan equine encephalitis virus
# [5] = test system: VEEV TC83; assay: microbe, parasite or virus in culture; type: cell-based, Venezuelan equine encephalitis virus; remark: listed apart in the source
# [6] = test system: BE(2)-M17 cells
# [7] = test system: Neuro-2a cells
# [8] = Venezuelan equine encephalitis virus, read-out: Human BE(2)-M17 (TC83) EC50 (μM)
# [9] = Venezuelan equine encephalitis virus, N2a, in Mus musculus, read-out: Mouse Neuro-2a (TC83) EC50 (μM)
Structure (SMILES),"EC50 [4, 8] [µM]","EC50 [5, 9] [µM]",Human BE(2)-M17 (TC83) CC50 ([6]; human) [µM],Mouse Neuro-2a (TC83) CC50 ([7]; mouse) [µM],further results
COC(=O)/C=C/CNC(=O)c1cccc2c1NC(C)(C)C=C2C [Compound 1],–,–,–,–,EC50 [1]: 0.55 µM; EC50 [2]: 6.48 µM
C[C@@H]1CC(C)(C)Nc2c(C(=O)NC/C=C/S(C)(=O)=O)cccc21 [Compound 11],–,–,–,–,inhibition at 0.9 µM [3]: ~39%
CC1=CC(C)(C)Nc2c(C(=O)N[C@@H](C)/C=C/S(C)(=O)=O)cccc21 [Compound 12],–,–,–,–,inhibition at 0.9 µM [3]: ~59%
C[C@@H]1CC(C)(C)Nc2c(C(=O)N[C@@H](C)/C=C/S(C)(=O)=O)cccc21 [Compound 13],–,–,–,–,inhibition at 0.9 µM [3]: ~71%
COC(=O)/C=C/CNC(=O)c1cccc2cccnc12 [Compound 17],> 25,> 25,>25.00,>25.00,–
COC(=O)/C=C/CNC(=O)c1cccc2ccc(C)nc12 [Compound 18],> 25,> 25,>25.00,>25.00,–
COC(=O)/C=C/CNC(=O)c1ccccc1Nc1ccccc1 [Compound 19],> 25,> 25,>25.00,>25.00,–
COC(=O)/C=C/CNC(=O)c1ccccc1Nc1cccc(Cl)c1Cl [Compound 20],> 25,> 25,>25.00,1.52,–
COC(=O)/C=C/CNC(=O)c1c[nH]c2ccc(C)cc12 [Compound 21],> 25,> 25,>25.00,>25.00,–
COC(=O)/C=C/CNC(=O)c1cccc2nccnc12 [Compound 22],> 25,> 25,>25.00,>25.00,–
COC(=O)/C=C/CNC(=O)c1ccccc1Nc1c(Cl)ccc(C)c1Cl [Compound 23],> 25,> 25,>25.00,23.53,–
COC(=O)/C=C/[C@H](C)NC(=O)c1cccc2c1NC(C)(C)C=C2C [Compound 24],> 25,> 25,>25.00,>25.00,–
COC(=O)/C=C/[C@H](C)NC(=O)c1cccc2c1NC(C)(C)C[C@H]2C [Compound 25],> 25,> 25,>25.00,>25.00,–
COC(=O)/C=C/C(C)(C)NC(=O)c1cccc2c1NC(C)(C)C=C2C [Compound 26],> 25,> 25,>25.00,>25.00,–
COC(=O)/C=C/C(C)(C)NC(=O)c1cccc2c1NC(C)(C)C[C@H]2C [Compound 27],> 25,> 25,>25.00,>25.00,–
COC(=O)/C=C/[C@H](Cc1ccccc1)NC(=O)c1c[nH]c2ccc(Cl)cc12 [Compound 28],> 50,> 50,>50.00,>50.00,–

Structure (SMILES),"EC50 [4, 8] [µM]","EC50 [5, 9] [µM]",Human BE(2)-M17 (TC83) CC50 ([6]; human) [µM],Mouse Neuro-2a (TC83) CC50 ([7]; mouse) [µM],further results
COC(=O)/C=C/[C@H](Cc1ccccc1)NC(=O)c1cccc2c1NC(C)(C)C=C2C [Compound 29],> 50,> 50,>50.00,>50.00,–
COC(=O)/C=C/[C@H](Cc1ccccc1)NC(=O)c1cc(C)cc2c1NC(C)(C)C=C2C [Compound 30],> 50,> 50,>50.00,>50.00,–
Cc1ccc2cccc(C(=O)NC/C=C/S(C)(=O)=O)c2n1 [Compound 31],> 25,> 25,>25.00,>25.00,–
CS(=O)(=O)/C=C/CNC(=O)c1ccccc1Nc1ccccc1 [Compound 32],> 25,> 25,27.14,>25.00,–
CS(=O)(=O)/C=C/CNC(=O)c1ccccc1Nc1cccc(Cl)c1Cl [Compound 33],> 25,> 25,5.86,15.48,–
CS(=O)(=O)/C=C/CNC(=O)c1cccc2nccnc12 [Compound 34],> 25,> 25,>25.00,>25.00,–
Cc1ccc(Cl)c(Nc2ccccc2C(=O)NC/C=C/S(C)(=O)=O)c1Cl [Compound 35],18.2 ± 0.93,> 25,14.50,>25.00,–
CS(=O)(=O)/C=C/[C@H](Cc1ccccc1)NC(=O)c1cccc2cccnc12 [Compound 36],> 25,> 25,>25.00,>25.00,–
CC1=CC(C)(C)Nc2c(C(=O)N[C@H](/C=C/S(C)(=O)=O)Cc3ccccc3)cc(C)cc21 [Compound 37],31.7 ± 16.7,> 50,>50.00,>50.00,–
CC1=CC(C)(C)Nc2c(C(=O)NC(C)(C)/C=C/S(C)(=O)=O)cccc21 [Compound 38],> 25,> 25,>25.00,>25.00,–
C[C@@H]1CC(C)(C)Nc2c(C(=O)NC(C)(C)/C=C/S(C)(=O)=O)cccc21 [Compound 39],> 25,> 25,>25.00,>25.00,–
COc1ccc2[nH]cc(C(=O)N[C@H](/C=C/S(=O)(=O)c3ccccc3)Cc3ccccc3)c2c1 [Compound 40],23.9 ± 5.33,> 25,>25.00,>25.00,–
CC1=CC(C)(C)Nc2c(C(=O)N[C@H](/C=C/S(=O)(=O)c3ccccc3)Cc3ccccc3)cccc21 [Compound 41],> 25,> 25,>25.00,>25.00,–
C[C@@H]1CC(C)(C)Nc2c(C(=O)N[C@H](/C=C/S(=O)(=O)c3ccccc3)Cc3ccccc3)cccc21 [Compound 42],> 25,> 25,>25.00,>25.00,–
O=C(N[C@H](/C=C/S(=O)(=O)c1ccccc1)Cc1ccccc1)c1cccc2c1NCCC2 [Compound 43],> 25,> 25,>25.00,>25.00,–
"CN1CCN(C)C(=Nc2ccc([N+](=O)[O-])cc2C(=O)Nc2ccccc2)C1 [ML336, reference compound]",–,–,–,–,EC50 ([4]; read-out: Human BE(2)-M17 (TC83) EC50): 0.01 µM; EC50 ([5]; read-out: Mouse Neuro-2a (TC83) EC50): 0.02 ± 0.01 µM; Human BE(2)-M17 (TC83) CC50 [6]: >2.50 µM; Mouse Neuro-2a (TC83) CC50 [7]: >2.5 µM
